The source of these data is patent publication US5061706A, “2,3-quinoxalinediones for use as neuroleptics” (priority 1988, dated 1991).

One assay has as its system quisqualate receptors. The note with it: in words, literature; cited from earlier work.
Assay [1] addresses quisqualate type receptors. The assay can be described thus: 3H-AMPA binding (displacement of 3H-AMPA from quisqualate type receptors, rat cerebral cortical membrane homogenate). The note with it: concentration causing 50% displacement of specific 3H-AMPA binding; Hill analysis; pH 7.1, 0° C., 30 min. As for the experimental part:
The pharmacological properties of the compounds of the present invention can be illustrated by determining their capability for displacing radioactively labelled 2-amino-3-hydroxy-5-methyl-4-isoxazolepropionic acid (AMPA) from the quisqualate type receptors.
The displacement activity of the compounds may be shown by determining the IC50 value which represents the concentration (μg/ml) which causes a displacement of 50% of the specific binding of ^3 H-AMPA.
500 μl of thawed rat cerebral cortical membrane homogenate in Tris-HCl (30 mM), CaCl2 (2.5 mM) and KSCN (100 mM) pH 7.1 were incubated at 0° C. for 30 min. with 25 μl ^3 H-AMPA (5 nM final concentration) and the test compound and buffer. Nonspecific binding was determined by incubation with L-glutamic acid (600 μM final concentration). The binding reaction was terminated by adding 5 ml of ice-cold buffer followed by filtration through Whatman GF/C glass fibre filters and 2×5 ml wash with ice-cold buffer. Bound radioactivity was measured by scintillation counting. IC50 was determined by Hill analysis of at least four concentrations of test compound.

In assay [2] the target is quisqualic acid stimulated 3H-GABA efflux from cultured cortical neurones (quisqualate receptors). The assay can be described thus: Release experiments: antagonism of quisqualic acid stimulated 3H-GABA efflux from cultured cortical neurones. In kind it is cell-based, mouse. Conditions: Table 1 Ki; test not stated. The method, then: The pharmacological properties of the compounds of the present invention can be illustrated by determining their capability for displacing radioactively labelled 2-amino-3-hydroxy-5-methyl-4-isoxazolepropionic acid (AMPA) from the quisqualate type receptors. […]
Cerebral cortices of 16 day old mouse embryos are chopped in 0.4×0.4 mm cubes. The tissue is dissociated by mild trypsinization (0.1% (wt/vol) trypsin, 37° C., 15 min) and subsequently inoculated into poly-L-lysine-coated 3 cm Petri dishes containing a slightly modified DMEM (24.5 mM KCl, 30 mM glucose) supplemented with p-aminobenzoate (7 μM), insulin (100 mU/1) and 10% (vol/vol) horse serum. Cells are maintained in culture for 5-7 days with the addition of the antimitotic agent cytosine arbinoside (40 μM) from day 2 in vitro to prevent glial proliferation. For further details and references see Drejer et al. (Exp. Brain Res. 47, 259 (1982)).
Release experiments are performed using the model described by Drejer et al. (Life Sci. 38, 2077 (1986)). Cerebral cortex interneurons cultured in Petri dishes (30 mm) are added 100 μM gamma-vinyl-GABA one hour before the experiment in order to inhibit degradation of GABA in the neurons. 30 min. before the experiment 5 μCi ^3 H-GABA is added to each culture and after this preloading period the cell monolayer at the bottom of the dish is covered with a piece of nylon mesh to protect the cells against mechanical damage and to facilitate dispersion of medium over the cell layer. The preloading medium is removed and the Petri dishes are placed in a superfusion system. This system consists of a peristaltic pump continuously delivering thermostated 37° C. superfusion medium (HEPES buffered saline (HBS): 10 mM HEPES, 135 mM NaCl, 5 mM KCl, 0.6 mM MGSO4, 1.0 mM CaCl2 and 6 mM D-glucose; pH 7.4) from a reservoir to the top of the slightly tilted Petri dish. The medium is continuously collected from the lower part of the dish and delivered to a fraction collector. Initially, the cells are superfused with HBS for 15 min. (flow rate 2 ml/min.). The cells are stimulated for 30 sec. every 4 min. by changing the superfusion medium from HBS to a corresponding medium containing quisqualate and test compound. The release of ^3 H-GABA in the presence of quisqualate (stimulated release in cpm) are corrected for the mean basal release (Cpm) before and after the stimulation.

Assay [3] concerns NMDA (N-methyl-D-aspartate) receptors. The note with it: in words, literature; cited from earlier work.
The next assay relates to kainate receptors. The note with it: in words, literature; cited from earlier work.

Values after ≈ are worked out from the molar mass of the structure shown.

As for `N[C@@H](CCC(=O)O)C(=O)O` [L-glutamic acid], the “agonist or antagonist activity on quisqualate receptors” value in the assay with quisqualate receptors is recorded as “potent agonists”.
One may read the IC50 as the concentration that inhibits the measured activity by half. High values mean lower potency, low ones higher potency. By Ki is commonly meant a dissociation constant, usually derived from enzyme kinetics or from competition with a known ligand. With `O=c1[nH]c2cc(C(F)(F)F)c(Cl)cc2n(O)c1=O` [Example 30 d, 7-chloro-1-hydroxy-6-trifluoromethylquinoxaline-2,3(1H,4H)-dione], in assay [1], the IC50 was determined as 0.37 mg/L (≈ 1.32 µM). This compound had a Ki in assay [2] of 0.12 mg/L (≈ 0.428 µM).
On the same counts, the results for `N#Cc1cc2c(cc1C(F)(F)F)[nH]c(=O)c(=O)n2O` [Example 6 d, 7-Cyano-1-hydroxy-6-trifluoromethylquinoxaline-2,3(1H,4H)-dione] are 0.15 mg/L (≈ 0.553 µM) and 0.08 mg/L (≈ 0.295 µM).
Take `N[C@H](C(=O)O)c1cc(=O)[nH]o1` [Ibotenic acid]: the “agonist or antagonist activity on NMDA receptors” value in assay [3] is given as “strong to moderate agonist activity”.
Regarding `N[C@H](CCCP(=O)(O)O)C(=O)O` [D-APV, 2-amino-5-phosphono-valeric acid], in assay [3], the “agonist or antagonist activity on NMDA receptors” value was “most potent and selective antagonists”.
Turning to `N[C@H](CCC[C@H](N)C(=O)O)C(=O)O` [diaminopimelic acid], the “agonist or antagonist activity on NMDA receptors” value in assay [3] is listed as “moderate antagonist activity”.
`N[C@H](CCCC(=O)O)C(=O)O` [D-2-amino-adipic acid]: in assay [3], the “agonist or antagonist activity on NMDA receptors” value was “moderate antagonist activity”.
Consider `N[C@H](CCC(=O)O)C(=O)O` [D-glutamic acid], for which, in assay [3], the “agonist or antagonist activity on NMDA receptors” value is listed as “strong to moderate agonist activity”.
As to `NS(=O)(=O)c1cc2c(cc1C(F)(F)F)[nH]c(=O)c(=O)n2O` [Example 33 d, 1-Hydroxy-7-sulfamoyl-6-trifluoromethylquinoxaline-2,3(1H,4H)-dione], the half-inhibitory concentration (IC50) in assay [1] came to 0.14 mg/L (≈ 0.43 µM). In assay [2], this compound came in with a Ki of 0.02 mg/L (≈ 0.0615 µM).
For `N[C@@H](CCS(=O)(=O)O)C(=O)O` [L-homocysteic acid], the “agonist or antagonist activity on NMDA receptors” value in assay [3] was “strong to moderate agonist activity”.
`NC(CCC(=O)NCC(=O)O)C(=O)O` (stereo not drawn) [3-glutamyl-glycine]: in the assay with kainate receptors, the “antagonism / inhibition of binding at kainate receptors” value is “some selectivity for kainate receptors”.
For `CCOC(=O)CC[C@H](N)C(=O)OCC` [GDEE, Glutamic acid diethyl ester], the “agonist or antagonist activity on quisqualate receptors” value in the assay on quisqualate receptors is recorded as “selective but very weak antagonist”.
As to `Cc1onc(O)c1CC(N)C(=O)O` (stereo not drawn) [AMPA, 2-amino-3-hydroxy-5-methyl-4-isoxazolepropionic acid], the “agonist or antagonist activity on quisqualate receptors” value in the assay on quisqualate receptors is listed as “potent agonists”.
Regarding `N[C@@H](Cn1oc(=O)[nH]c1=O)C(=O)O` [quisqualic acid], the “agonist or antagonist activity on quisqualate receptors” value in the assay on quisqualate receptors is “activated selectively”.
Take `N[C@H](CCCCCP(=O)(O)O)C(=O)O` [D-APH, 2-amino-7-phosphonoheptanoic acid]: the “agonist or antagonist activity on NMDA receptors” value in assay [3] is “most potent and selective antagonists”.
Consider `O=C(O)[C@@H]1CCCN[C@H]1C(=O)O` (relative stereo) [trans-2,3-PDA, trans-2,3-piperidine dicarboxylic acid], for which the “agonist or antagonist activity on NMDA receptors” value in assay [3] is reported as “strong to moderate agonist activity”.
Turning to `CC(=O)c1cc2c(cc1C#N)[nH]c(=O)c(=O)n2O` [Example 34 e, 7-Acetyl-6-cyano-1-hydroxyquinoxaline-2,3(1H,4H)-dione], the half-maximal inhibitory concentration (IC50) in assay [1] was found to be 0.09 mg/L (≈ 0.367 µM). Further, the inhibitory constant (Ki) in assay [2] is 0.27 mg/L (≈ 1.1 µM).
